The record followed here is article PMC7845594, “Novel Immune Modulators Enhance Caenorhabditis elegans Resistance to Multiple Pathogens” (mSphere, 2021).

The test system of series [1] is glp-4(bn2) C. elegans exposed to P. aeruginosa PA14. The series can be described thus: P. aeruginosa liquid killing assay (effective rescue concentration). The class given is in vivo, Caenorhabditis elegans. The settings on record: glp-4(bn2) worms, ± 95% confidence interval. How it is done: (§1) For the first round of characterization, 69 novel small molecules previously selected on the basis of their ability to improve C. elegans survival during exposure to P. aeruginosa in liquid ([14]) were tested for the ability to interfere with bacterial growth. MICs were determined for each compound by growing P. aeruginosa strain PA14 in static culture in 384-well plates with serial 2-fold dilutions of compounds. No worms were used in these assays. Next, effective rescue concentrations (EC; defined as the minimum concentration that results in statistically significant survival, compared to dimethyl sulfoxide [DMSO]) ([15], [18]) were determined for each compound using the standard P. aeruginosa liquid killing assay. Sterile glp-4(bn2) worms were used in all liquid-based assays to limit artifacts (i.e., unlaid eggs will hatch and cause matricide).
FIG 1 LK molecules rescue C. elegans from P. aeruginosa in liquid killing. […] (B) Lipinski values for the five LK molecules, showing their molecular mass, predicted octanol-water partition coefficient, polar surface area, number of hydrogen donors and acceptors, and the number of rotatable bonds. (C) Minimum effective concentrations (EC) and 95% confidence interval, MICs (defined as the minimum concentration to prevent grown in LB media), and their ratio (MIC/EC). The minimum effective concentration was calculated from the lowest concentration that retained statistically significant rescue of glp-4(bn2) C. elegans, a temperature-sensitive sterile strain, from exposure to P. aeruginosa PA14. […] Compounds were added in serial 2-fold dilutions from 50 µM to 12.5 μM. *, P < 0.05; **, P < 0.01; ***, P < 0.001. P values were calculated using Student’s t test. At least six wells containing 20 worms each per condition per replicate were used for determination of liquid killing. EC values were calculated based on at least three biological replicates. Error bars represent the standard error of the mean.
Liquid killing of C. elegans was performed as previously described with some changes ([91]). In brief, an overnight culture of LB medium was inoculated with a single colony of Pseudomonas aeruginosa strain PA14. Then, 400 µl of culture was spread onto a 10-cm slow-kill agar plate ([91]) and grown for 24 h at 37°C, followed by 24 h at 25°C. Bacteria were scraped from the plate, resuspended in S Basal medium, and added to 384-well plates with small molecules dissolved in DMSO. Solution in wells contained a final concentration of 40% SK media, 59% S Basal medium, 1% DMSO, and small molecules. For all liquid-based killing assays, solvent control wells contained 1% DMSO. MgSO4 and CaCl2 (300 µM) and cholesterol (1.6 µg/ml) were added to aid in production of virulence factors. Worms were sorted into 384-well plates using a COPAS FlowSort (Union Biometrica, Holliston, MA), incubated at 25°C until the DMSO control was roughly 35 to 55% dead, washed four times using an EL406 microplate washer (BioTek, VT), and stained with 50 μl of Sytox Orange at 1 µM to fluorescently stain dead worms. Wells were imaged in bright-field and RFP channels using the BioTek Cytation5, followed by image analysis using the CellProfiler software package to calculate fraction of dead worms in each well. EC values were defined as the minimum concentration that provided statistically significant rescue. At least three biological replicates were performed.

The test system of series [2] is P. aeruginosa strain PA14. The series can be described thus: MIC assay (bacterial growth, no worms). The class given is cell-based, Pseudomonas aeruginosa. The settings on record: for MIC: Pseudomonas aeruginosa; for MIC / EC: ratio of MIC to EC, P. aeruginosa PA14. How it is done:
as §1
Plates were allowed to grow for 24 h at 37°C without shaking. Growth was scored visually on the basis of turbidity. At least three biological replicates were performed.

In series [3] the test system is glp-4(bn2) worms exposed to P. aeruginosa isolate PA2-61. The series can be described thus: Liquid killing assay with cystic fibrosis isolate. The format is in vivo, Caenorhabditis elegans. The settings on record: isolate PA2-61, serial 2-fold dilutions from 50 µM to 12.5 μM.
Protocol: We also tested these strains against a P. aeruginosa isolate from a pediatric cystic fibrosis patient, P. aeruginosa PA2-61, that we previously characterized ([22]).
Liquid killing of C. elegans was performed as previously described with some changes ([91]). In brief, an overnight culture of LB medium was inoculated with a single colony of Pseudomonas aeruginosa strain PA14. Then, 400 µl of culture was spread onto a 10-cm slow-kill agar plate ([91]) and grown for 24 h at 37°C, followed by 24 h at 25°C. Bacteria were scraped from the plate, resuspended in S Basal medium, and added to 384-well plates with small molecules dissolved in DMSO. Solution in wells contained a final concentration of 40% SK media, 59% S Basal medium, 1% DMSO, and small molecules. For all liquid-based killing assays, solvent control wells contained 1% DMSO. MgSO4 and CaCl2 (300 µM) and cholesterol (1.6 µg/ml) were added to aid in production of virulence factors. Worms were sorted into 384-well plates using a COPAS FlowSort (Union Biometrica, Holliston, MA), incubated at 25°C until the DMSO control was roughly 35 to 55% dead, washed four times using an EL406 microplate washer (BioTek, VT), and stained with 50 μl of Sytox Orange at 1 µM to fluorescently stain dead worms. Wells were imaged in bright-field and RFP channels using the BioTek Cytation5, followed by image analysis using the CellProfiler software package to calculate fraction of dead worms in each well. […]
The subject of series [4] is C. elegans transcriptome. The series can be described thus: Gene ontology enrichment (DAVID) of up-/downregulated genes. The settings on record: upregulated genes, 100 µM, 8 h. The arrangement: species or system Caenorhabditis elegans. The procedure:
To gain additional insight into the effect of LK molecules on C. elegans, young-adult, wild-type worms were treated with each drug at 100 µM for 8 h in the absence of pathogen. RNA was collected, and transcriptome profiling was performed.
Supplementary file : TABLE S4 Enriched gene ontology categories. […] Redundant gene ontology categories were removed. Download Table S4, XLSX file, 0.02 MB.
Transcriptome profiling was performed on ∼6,000 wild-type, young adult worms incubated with either LK molecules or DMSO for 8 h. RNA isolation was performed using TRIzol extraction, followed by cleanup using RNeasy columns according to the manufacturer’s protocol. Each condition was analyzed in triplicate. Microarray data have been deposited in the GEO database, accession number GSE137516. […] Clustering and generation of the heat map was performed using Cluster 3.0 ([98]) and Treeview ([99]), respectively. Fold change of genes were normalized to average fold change of that gene over all clustered conditions. Genes and conditions were clustered using Euclidean distance and average linkages. […] Microarray data for non-LK molecules were collected from GEO omnibus. WormEXP was used as a secondary method for confirming statistical significance of potential pathways stimulated by each of the LK molecules ([100]). Gene ontologies were generated using DAVID ([101], [102]).

The subject of series [5] is RWPE-1 cells. The series can be described thus: MTT cell viability assay. The note with it: RWPE-1, 10, 50, or 100 µM, 24 h; cell death greater than 30% = toxicity.
Protocol: (B) 1.5 × 10^4 RWPE-1 immortalized prostate cells were seeded into each well of a 96-well plate. […] The viability was normalized to a DMSO solvent control. Six wells were used per condition, and an average of three biological replicates is shown.
We also tested compound toxicity in RWPE-1 cells, a well-established, noncancerous, immortalized prostate epithelial cell line available in the lab. Cells were seeded in 96-well plates and allowed to attach before media containing various concentrations of one of the compounds (or DMSO as a control) were added. […] Cell death greater than 30% was considered evidence of toxicity (Fig. 3B).
Then, 100 µl of DMSO was added, and the absorbance at 590 nm measured. MTT assays were performed in triplicate.
Where [6] appears, read: P. aeruginosa PA14, LB media, static culture, no worms, read-out: MIC.

Several values for one entry are separate records, joined by “and”; a condition that tells them apart may be missing. Identical values can stand only once. Entries after “also recorded” stand apart in the source; their conditions may differ. Like-named read-outs stand apart in the source and are kept apart here.

In general, MIC refers to the lowest concentration found to suppress growth.

For `CCN(CC)/N=N/c1ccc(C(=O)O)cc1` [LK35], in series [1], the “EC (minimum effective concentration giving statistically significant rescue)” value was determined as 17.3 ± 6.1 µM. Also, the MIC in series [2] (setting [6]) was more than 908 µM. Further, the “MIC / EC” value in series [2] was more than 52.4.

Take `O=c1cc(CNc2ccc(Br)cc2)nc2sccn12` [LK56]: the “EC (minimum effective concentration giving statistically significant rescue)” value in series [1] is 7.3 ± 1.9 µM and 7.3 µM. The MIC in series [2] (setting [6]) was more than 595 µM. The “MIC / EC” value in series [2] is recorded as more than 81.5. Also, the “Dose dependence of rescue in liquid killing” value (from here on “Dose dependence of rescue”) in series [3] is “dose-dependent rescue”. The “Fold Enrichment, GO term Cytochrome P450” value in series [4] was 12.9.

`COC(=O)/C=C/C(=O)Nc1ccccc1` [LK32]: in series [1], the “EC (minimum effective concentration giving statistically significant rescue)” value was 32 ± 0.0 µM and 32 µM. The MIC in series [2] (setting [6]) was more than 975 µM. Also, the “MIC / EC” value in series [2] was more than 30.5. The “Toxicity in mammalian cells (MTT viability)” value in series [5] was “poorly tolerated; also recorded: substantial toxicity”.

As for `CNC(=O)Oc1c(Br)cc2sc(=O)oc2c1Br` [LK34], in series [1], the “EC (minimum effective concentration giving statistically significant rescue)” value was 9.3 ± 4.4 µM and 9.3 µM. Further, the MIC in series [2] (PA14) was more than 522 µM. Besides, in series [2], the “MIC / EC” value is reported as more than 56.1. In series [3], the “Dose dependence of rescue” value was “dose-dependent rescue”. The “Toxicity in mammalian cells (MTT viability)” value in series [5] is reported as “some toxicity”.

On to `CN(C)/N=N/c1ccc(-c2cn(Cc3ccccc3)cn2)cc1` [LK38], for which the “EC (minimum effective concentration giving statistically significant rescue)” value in series [1] came out at 6.7 ± 2.0 µM. The MIC in series [2] (setting [6]) was more than 655 µM. The “MIC / EC” value in series [2] was more than 97.8. The “Dose dependence of rescue” value in series [3] is recorded as “dose-dependent rescue”. Besides, the “Fold Enrichment, GO term Cytochrome P450” value in series [4] is 12.2.
